According to US11517528B2, “Lipid membrane structure for delivery into siRNA cell” (NATIONAL UNIVERSITY CORPORATION HOKKAIDO UNIVERSITY, priority 2017, dated 2022):

How the values were obtained:
[1] = test system: HeLa cells stably expressing dual-luciferase (HeLa-dluc); assay: in vitro knockdown activity, dual-luciferase assay; format: cell-based
Method: Hemolysis activity, in vitro knockdown activity, and in vivo F7 knockdown activity, which are indicators of endosome escape activity, were measured. Regarding the hemolysis activity, mouse erythrocytes and LNPs were mixed in a buffer solution adjusted to pH 6.5, the mixture was incubated at 37° C. for 30 minutes and then centrifuged, and an absorbance of the supernatant at 545 nm was measured. Hemolysis efficiency of each sample was calculated by respectively using a sample to which LNPs were not added and a sample to which Triton X-100 having a final concentration of 0.5% was added, as a negative control and a positive control. Regarding the in vitro knockdown activity, LNPs loaded with siRNA against luciferase were added to HeLa cells stably expressing dual-luciferase (HeLa-dluc) at various concentrations, and knockdown efficiency was calculated 24 hours after the addition by dual-luciferase assay. […] Regarding the in vivo F7 knockdown activity, 0.1 mg siRNA/kg of LNPs loaded with siRNA against F7 were intravenously administered to an ICR mouse (4 weeks old, female), and F7 enzyme activity in plasma was measured 24 hours after the administration. Each activity against pKa was plotted (FIG. 3).
The influence of hydrophobic scaffolds on siRNA introduction activity of small LNPs with an average particle diameter of about 35 nm was examined. […]

[2] = cationic lipid content in liver and spleen by LC/MS; format: in vivo, mouse; settings: 1 mg siRNA/kg of LNP i.v., ICR mice; until 72 hours
Method: 1 mg siRNA/kg of Each LNP was intravenously administered to ICR mice (4 weeks old, female), the liver and spleen were recovered over time, and each cationic lipid was quantitatively determined by LC/MS.

For `CCCCCCCC/C=C\CCCCCCCC(=O)OCCCCCCC(O)(CCCCCCOC(=O)CCCCCCC/C=C\CCCCCCCC)CCCCOC(=O)C1CCN(C)CC1` [CL15H6, 7-Hydroxy 7-(4-((1-methylpiperidine-4-carbonyl)oxy)butyl)tridecane-1,13-diyl dioleate], the “in vitro knockdown activity” value ([1]; LNPs loaded with siRNA against luciferase, 24 hours, compared with CL15A) was “about three times higher activity than that of CL15A”.
`CCCCC/C=C\C/C=C\CCCCCCCCC(O)(CCCCCCCC/C=C\C/C=C\CCCCC)CCCCOC(=O)C1CCN(C)CC1` [CL15A, (14Z,17Z)-5-Hydroxy-5-((9Z,12Z)-octadeca-9,12-dien-1-yl)tricosa-14,17-dien-1-yl 1-methylpiperidine-4-carboxylate] gave a luciferase knockdown efficiency ([1]; 30 nM siRNA, small LNPs, average particle diameter about 35 nm, HeLa-dluc) of no more than 30%.
In the case of `CCCCC/C=C\C/C=C\CCCCCCCCOC1(OCCCCCCCC/C=C\C/C=C\CCCCC)CCN(C)CC1` [YSK05], the “tissue content of cationic lipid in liver and spleen over time” value [2] is reported as “almost constant until 72 hours after the administration”.
